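Protocol summary: plate cells (96-well), add compound at 5 concentrations, incubate 48 h, interpolate endpoints linearly. Abbreviation: GI50, concentration required for 50% inhibition of growth.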 The source made the active and inactive calls. No stated cut-off is given here; in the data, active = GI50 up to about 1.1 µM and inactive = higher.
Assays:
Experiment in all cases: inhibition of tumour cell growth, NCI panel, 48 h
BT-549 = tested on: BT-549
DU-145 = tested on: DU-145
HCT-116 = tested on: HCT-116
HCT-15 = tested on: HCT-15
HL-60 = tested on: HL-60
HT-29 = tested on: HT-29
K562 = tested on: K562
KM12 = tested on: KM12
MDA-MB-231 = tested on: MDA-MB-231
MOLT-4 = tested on: MOLT-4
Malme-3M = tested on: Malme-3M
NCI-H23 = tested on: NCI-H23
NCI-H460 = tested on: NCI-H460
OVCAR-8 = tested on: OVCAR-8
RPMI-8226 = tested on: RPMI-8226
RXF 393 = tested on: RXF 393
SF-295 = tested on: SF-295
SK-OV-3 = tested on: SK-OV-3
UACC-62 = tested on: UACC-62
UO-31 = tested on: UO-31

Structure (SMILES) | GI50 (BT-549) | GI50 (DU-145) | GI50 (HCT-116) | GI50 (HCT-15) [µM] | GI50 (HL-60) | GI50 (HT-29) | GI50 (K562) | GI50 (KM12) | GI50 (MDA-MB-231) | GI50 (MOLT-4) | GI50 (Malme-3M) | GI50 (NCI-H23) | GI50 (NCI-H460) | GI50 (OVCAR-8) | GI50 (RPMI-8226) | GI50 (RXF 393) | GI50 (SF-295) | GI50 (SK-OV-3) | GI50 (UACC-62) | GI50 (UO-31)
COc1ccc(Cc2cc(OC)c(OC)c(OC)c2)cc1 | 1.54 µM (inactive) | 0.328 µM (active) | 0.207 µM (active) | 0.114 | 0.0586 µM (active) | 0.124 µM (active) | 0.0665 µM (active) | 0.144 µM (active) | 0.711 µM (active) | 0.221 µM (active) | 0.387 µM (active) | 0.395 µM (active) | 0.286 µM (active) | 0.504 µM (active) | 0.298 µM (active) | 0.168 µM (active) | 0.188 µM (active) | 0.308 µM (active) | 0.129 µM (active) | 0.766 µM (active)
C=CC[C@@]1([C@H](C=C)COCc2ccc(OC)cc2)CC[C@]2(C)OC(C)(C)[C@@H](c3ccccc3)N2C1=S | 40.7 µM (inactive) | 54.5 µM (inactive) | 35.9 µM (inactive) | 81.5 | 22.4 µM (inactive) | 29 µM (inactive) | 27.4 µM (inactive) | 36.9 µM (inactive) | 46.2 µM (inactive) | 52.4 µM (inactive) | 37.6 µM (inactive) | 40.4 µM (inactive) | 44.4 µM (inactive) | 48.5 µM (inactive) | 33.5 µM (inactive) | 86.7 µM (inactive) | 43.1 µM (inactive) | 86.5 µM (inactive) | 28.2 µM (inactive) | > 100 µM (inactive)
Oc1ccc(-c2nc3ccc(F)cc3s2)cc1 | 18.1 µM (inactive) | 15.2 µM (inactive) | 18.2 µM (inactive) | 18 | 22.4 µM (inactive) | 15 µM (inactive) | 29.4 µM (inactive) | 15.7 µM (inactive) | 20.8 µM (inactive) | 27 µM (inactive) | 18.5 µM (inactive) | 19.7 µM (inactive) | 24.1 µM (inactive) | 19.4 µM (inactive) | 35.7 µM (inactive) | 25.3 µM (inactive) | 19.1 µM (inactive) | 18.2 µM (inactive) | 17.6 µM (inactive) | 15.2 µM (inactive)
NCC(O)CSP(=O)(O)O (stereo not given) | > 100 µM (inactive) | > 100 µM (inactive) | > 100 µM (inactive) | > 100 | > 100 µM (inactive) | > 100 µM (inactive) | > 100 µM (inactive) | > 100 µM (inactive) | > 100 µM (inactive) | > 100 µM (inactive) | > 100 µM (inactive) | > 100 µM (inactive) | > 100 µM (inactive) | > 100 µM (inactive) | > 100 µM (inactive) | > 100 µM (inactive) | > 100 µM (inactive) | > 100 µM (inactive) | > 100 µM (inactive) | > 100 µM (inactive)
CS(=O)(=O)c1ccc(/C=N/NC(N)=S)cc1 | > 100 µM (inactive) | > 100 µM (inactive) | > 100 µM (inactive) | > 100 | > 100 µM (inactive) | > 100 µM (inactive) | > 100 µM (inactive) | > 100 µM (inactive) | > 100 µM (inactive) | > 100 µM (inactive) | > 100 µM (inactive) | > 100 µM (inactive) | > 100 µM (inactive) | > 100 µM (inactive) | > 100 µM (inactive) | > 100 µM (inactive) | > 100 µM (inactive) | > 100 µM (inactive) | > 100 µM (inactive) | > 100 µM (inactive)
C=C(C)C(=O)OC1CC2(C)OC(=CC2=O)C(C)CC2OC(=O)C(=C)C12 (stereo not given) | 6.25 µM (inactive) | 4.74 µM (inactive) | 1.75 µM (inactive) | 1.65 | 0.461 µM (active) | 3.92 µM (inactive) | 0.656 µM (active) | 19.8 µM (inactive) | 13.5 µM (inactive) | 2.9 µM (inactive) | 3.44 µM (inactive) | 8.89 µM (inactive) | 11.9 µM (inactive) | 8.41 µM (inactive) | 3.3 µM (inactive) | 1.19 µM (inactive) | 19 µM (inactive) | 34.9 µM (inactive) | 10.8 µM (inactive) | 4.9 µM (inactive)
COc1ccc2c(c1)OC(c1cccnc1)C(c1ccccc1)C2=O (stereo not given) | > 100 µM (inactive) | > 100 µM (inactive) | 97.5 µM (inactive) | > 100 | > 100 µM (inactive) | > 100 µM (inactive) | > 100 µM (inactive) | > 100 µM (inactive) | > 100 µM (inactive) | > 100 µM (inactive) | > 100 µM (inactive) | > 100 µM (inactive) | > 100 µM (inactive) | 80.2 µM (inactive) | > 100 µM (inactive) | > 100 µM (inactive) | 46.5 µM (inactive) | 59.4 µM (inactive) | > 100 µM (inactive) | > 100 µM (inactive)

Reference: ChEMBL document CHEMBL1201862, “PubChem BioAssay data set” (2004)
